According to patent publication US20260355199A1, “COMPOSITIONS AND METHODS FOR TREATING OR PREVENTING NONALCOHOLIC STEATOHEPATITIS (NASH), ANOREXIA, DEPRESSION, ENDOMETRIOSIS, AND OTHER DISEASES OR DISORDERS” (priority 2022, published 2026):
“Also recorded” adds a separate entry of the source.

Columns and labels:
AgRP neurons = assay: AgRP neuron viability and activation (FOS); type: in vivo, mouse; conditions: Bobcat339 vs. vehicle mice
Text: As genetic TET3 knockdown specifically in AgRP neurons activated these neurons (Xie et al., 2022, J Clin Invest, 132), additional studies tested whether Bobcat339 treatment can activate AgRP neurons using FOS (a marker for neuronal activation) as a readout. Thus, ARCs were isolated under fed conditions (9:00-11:00) from mice treated with Bobcat339 or vehicle as above (FIG. 16A through FIG. 16D).
(§1) Bobcat339 powder (Sigma-Aldrich, SML2611) was freshly dissolved in DMSO (vehicle) at a concentration of 50 mg/mL and filtered through a 0.22 micron. It was further diluted with 1×PBS to a final concentration of 0.5 mg/mL before injections. Mice were injected intraperitoneally with Bobcat339 at 1 mg/kg, 2.5 mg/kg, or 4 mg/kg.
The immunofluorescence for brain slices was conducted using previous methods (18). In brief, postfixed sections were cut into 40-μm-thick sections, followed by 5 times washing. […] The sections were coverslipped and scoped using a Keyence BZ-X700 fluorescence microscope. The fluorescence signals from GFP in AgRP neurons were detected without immunostaining.

TET3 mRNA = TET3 mRNA in THP-1 cells; type: cell-based, human; conditions: THP-1, 10 μM, 24 h
Experimental: (§2) Bobcat339 Treatment of Cultured Cells Bobcat339 powder (Sigma-Aldrich, SML2611) was freshly dissolved in DMSO at a concentration of 5 mM and filtered through a 0.22 micron. Cells grown at a density of 80-90% were incubated in growth media with vehicle (DMSO) or Bobcat339 at a final concentration of 10 μM for 24 h, followed by RNA and protein extraction.
Total RNAs were extracted from cells using PureLink RNA Mini Kit. 0.5-1 μg total RNA was reverse transcribed to cDNA in a reaction volume of 20 μL using PrimeScript RT Reagent Kit. Real-time quantitative PCR was performed in a 15 μL reaction volume containing 0.5-1 μL of cDNA using SsoAdvanced Universal SYBR Green Supermix in a Bio-Rad iCycler. Gene expression levels were normalized against RPLP0.

[1] = Liver toxicity after three weeks of once-a-week Bobcat339; type: in vivo, mouse
Experimental: (§3) For corticosterone, blood samples were obtained via retroorbital bleeding between 19:00 and 20:00. For alanine transaminase, aspartate transaminase and bilirubin, blood samples were collected by cardiac puncture of terminally anesthetized animals. All blood samples were collected in EDTA tubes (Microtainer with K2EDTA, BD, 365974). The tubes were centrifuged at 2,000×g at 4 °C for 20 min, and plasma was collected and stored at −80 °C until use. Plasma corticosterone levels were measured using Corticosterone ELISA kit (Enzo, ADI-900-097) according to the manufacturer's instructions. Kits used to measure alanine transaminase (EALT-100) and aspartate transaminase (EASTR-100) were purchased from Bioassay Systems. The bilirubin assay kit (MAK126) was purchased from Sigma Aldrich.

TET3 = TET3 protein in THP-1 cells; type: cell-based, human; conditions: THP-1, 10 μM, 24 h
Experimental: as §2
Cells were homogenized in situ using a pipette tip in 2×SDS-sample buffer with 10% β-mercaptoethanol at RT followed by heating at 100 °C for 5 min with occasional vortexing. The samples were loaded onto a 4-15% gradient SDS gel (Bio-rad, 456-8086) (10 μL/well) and transferred to nitrocellulose membranes, followed by Western blot analysis. The antibodies used were anti-TET3 (diluted at 1:1000, GeneTex, GTX121453 for human; diluted at 1:1000, Active Motif, 61395 for mouse), anti-TET2 (diluted at 1:1000, Proteintech, 21207-1-AP for human/mouse), anti-TGF-β1 (diluted at 1:1000, Abcam, ab215715 for human), anti-Lin28A (diluted at 1:1000, Cell Signaling, 3978S), and HRP-conjugated anti-GAPDH (dilution 1:5000; Proteintech, HRP-60004). The secondary antibody was HRP-linked Anti-rabbit IgG (dilution 1:10,000; Rockland, 611-1322).

Plasma corticosterone = type: in vivo, mouse; conditions: ABA mice
Experimental: as §3

[2] = test system: activity-based anorexia (ABA) mice; assay: Activity-based anorexia (ABA) model; type: in vivo, mouse
Text: The importance of AgRP neurons in psychiatric conditions such as anorexia was further underscored by a recent report showing that chemogenetic activation of AgRP neurons in mice during ABA attenuated bodyweight loss with reduction in excessive physical activity (Hickey et al., 2022, Mol Psychiatry). […] Thus, peripubertal female mice were exposed to the ABA paradigm as previously described (Miletta, M. C. et al., 2020, Nature Metabolism, 2:1204-1211). Mice were singly housed at postnatal day 36 (P36) with ad libitum access to food, water, and a running wheel. After 4 days of acclimation at P40, mice were food restricted with free access to food for only 2 h daily for 3 days. At P40 and before the onset of food restriction, mice received first intraperitoneal (i.p.) injection of Bobcat339 or vehicle, with second and third injections performed at P47 and P54, respectively (FIG. 17A).
as §1
On P36, animals were single housed with free access to food and water and 24 h access to a running wheel. After 4 days of acclimation, on P40, all food was removed from the cage and returned only for 2 h daily (free food access from 19:00 to 21:00) and 24 h access to a running wheel for 3 days. On P43, 24 h ad libitum access to food was returned and the running wheel access was blocked to allow the animals to recover. The animals were allowed to recover for at least 1 week before undergoing behavioral testing. Continuous multiday analysis of running wheel activity was recorded using VitalView Data Acquisition System software version 5.1 (Starr Life Science). Food intake was measured after measurement of the food pellets before and after the 2 h food restriction. Body weight was monitored in the morning. Body composition was assessed using EchoMRI analysis.

Q: For `Nc1nc(=O)n(-c2cccc(-c3ccccc3)c2)cc1Cl` [Bobcat339, 4-Amino-1-[1,1′-biphenyl]-3-yl-5-chloro-2(1H)-pyrimidinone], which “AgRP neuronal viability / number” value (AgRP neurons) is on record?
A: The value was “did not affect AgRP neuronal viability; also recorded: no significant difference between the groups”.

Q: What about the “FOS expression in AgRP neurons” value (AgRP neurons; fed) of the same compound?
A: The value was “increased expression of FOS in AgRP neurons”.

Q: And the “TET3 mRNA” value (TET3 mRNA)?
A: The value was “no significant difference in expression between the groups”.

Q: And the tolerability ([1]; 3-weeks of once-a-week i.p. injection)?
A: The tolerability was “well tolerated”.

Q: What about the liver toxicity ([1]; three weeks of once-a-week i.p. Bobcat339) of the same compound?
A: Its liver toxicity is “no evidence of liver toxicity; also recorded: no liver toxicity has been detected”.

Q: And the TET3 protein level (TET3)?
A: Its TET3 protein level is “a decrease in TET3 at the protein level”.

Q: What about the plasma cortisol levels (Plasma corticosterone) of the same compound?
A: The plasma cortisol levels was “reduced plasma cortisol levels”.

Q: And the “lethality in the ABA model” value ([2]; ABA)?
A: The value was “diminished lethality”.

Q: And the “body weight, daily food intake, and running wheel account” value ([2]; ABA, acclimation)?
A: Its value is “no differences”.

Q: And the body weight ([2]; ABA, food restriction)?
A: Its body weight is “able to maintain their body weight throughout the experiment”.

Q: And the food intake ([2]; ABA, food restriction)?
A: Its food intake is “increased feeding; also recorded: a significant increase in food intake”.

Q: And the wheel running ([2]; ABA, food restriction)?
A: The wheel running was “decreased compulsive running; also recorded: decline in compulsive wheel running”.

Q: And the body composition ([2]; end of the recovery period)?
A: Its body composition is “No differences in body composition”.

Q: What about the “onset of appetite-stimulating and anti-stress effects” value ([2]; i.p.) of the same compound?
A: Its value is no more than 24 h.

Q: What about the “duration of appetite-stimulating and anti-stress effects” value ([2]; single i.p. injection) of the same compound?
A: Its value is “lasted for at least one week”.

Q: And the “therapeutic effect in a mouse model of anorexia” value ([2]; summary)?
A: Its value is “elicited therapeutic effects in a mouse model of anorexia”.
